Test results reported in US8815812B2, “Synthetic arginine substituted peptides and their use” (Inger Mattsby-Baltzer, priority 2007, dated 2014).
Where no end group is shown, it is not given here.

Columns and labels:
Experiment in all cases: Antimicrobial assay (MMC99) in 1% Bactopeptone
Assay type in all cases: cell-based
Details in all cases: 99% reduction of the inoculum
C. albicans = test system: C. albicans
Protocol: (§1) [NT] […] Washed cells were suspended in 1% Bactopeptone (BP) (Difco, USA). The concentration of bacterial or fungal cells was spectrophotometrically adjusted. Peptides serially diluted in BP by twofold steps were added in duplicate or triplicate to the wells of a microtiterplate (200 μl per well). The bacterial or yeast cell solutions were added in 10 μl volumes to give a final concentration of approximately 2×10^5 cells per ml. The concentration of the stock solution was always checked by viable counts. The microplate was incubated at 37° C. in a humid chamber for 2 h unless otherwise stated. Five μl were taken from each well and added as a drop onto a blood agar plate and incubated over night at 37° C. The concentration of lactoferrin or peptide causing a 99% reduction of the inoculum was defined as the MMC99.

S. aureus = test system: S. aureus
Protocol: as §1

E. coli = test system: E. coli
Protocol: as §1

GRRRRSVQWCAVSQPEATKCFQWQRNMRKVR (cysteine pairing not given here) [HLBD31]
MMC99 (C. albicans; 2 h): 25 µg/mL
MMC99 (C. albicans; 24 h): 38 µg/mL
MMC99 (S. aureus; 2 h): 100 µg/mL
MMC99 (S. aureus; 24 h): 100 µg/mL
MMC99 (E. coli; 2 h): >100 µg/mL
MMC99 (E. coli; 24 h): 50 µg/mL
